Measurements as given in ChEMBL document CHEMBL1201862, “PubChem BioAssay data set” (2004).
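How tested: cells in 96-well plates exposed to compound for 48 hours at five concentrations. Abbreviation: GI50, concentration required for 50% inhibition of growth.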 The source made the active and inactive calls. Rule as the data show it: active = GI50 up to about 1.1 µM and inactive = higher.

Key:
Experiment in all cases: growth of human tumour cells (NCI), 48 h
SK-OV-3 = test system: SK-OV-3
UO-31 = test system: UO-31
SR = test system: SR
M14 = test system: M14
UACC-62 = test system: UACC-62
OVCAR-8 = test system: OVCAR-8
MOLT-4 = test system: MOLT-4
SK-MEL-28 = test system: SK-MEL-28
ACHN = test system: ACHN
PC-3 = test system: PC-3
Malme-3M = test system: Malme-3M
IGROV-1 = test system: IGROV-1
SNB-19 = test system: SNB-19
NCI-H23 = test system: NCI-H23
COLO 205 = test system: COLO 205
SK-MEL-2 = test system: SK-MEL-2
OVCAR-3 = test system: OVCAR-3
HCC 2998 = test system: HCC 2998
U-251 = test system: U-251
A498 = test system: A498

Compound | GI50 (SK-OV-3) | GI50 (UO-31) | GI50 (SR) | GI50 (M14) | GI50 (UACC-62) | GI50 (OVCAR-8) | GI50 (MOLT-4) | GI50 (SK-MEL-28) | GI50 (ACHN) | GI50 (PC-3) | GI50 (Malme-3M) | GI50 (IGROV-1) | GI50 (SNB-19) | GI50 (NCI-H23) | GI50 (COLO 205) | GI50 (SK-MEL-2) | GI50 (OVCAR-3) | GI50 (HCC 2998) | GI50 (U-251) | GI50 (A498)
CN(C)CCn1c2c(c3ccccc31)CCc1ccccc1-2 | 18.7 µM (inactive) | 13.6 µM (inactive) | 10.8 µM (inactive) | 13.5 µM (inactive) | 13 µM (inactive) | 16 µM (inactive) | 10.8 µM (inactive) | 15.8 µM (inactive) | 16.3 µM (inactive) | 11.4 µM (inactive) | 16.1 µM (inactive) | 10 µM (inactive) | 16.3 µM (inactive) | 17.4 µM (inactive) | 11.3 µM (inactive) | 15.3 µM (inactive) | 14.6 µM (inactive) | 0.569 µM (active) | 13.6 µM (inactive) | 
O=C1CCC2CCC1C2 (configuration not stated) | > 100 µM (inactive) | > 100 µM (inactive) |  | > 100 µM (inactive) | > 100 µM (inactive) | > 100 µM (inactive) | > 100 µM (inactive) | > 100 µM (inactive) | > 100 µM (inactive) | > 100 µM (inactive) | > 100 µM (inactive) |  | > 100 µM (inactive) | > 100 µM (inactive) | > 100 µM (inactive) | > 100 µM (inactive) | > 100 µM (inactive) | > 100 µM (inactive) | > 100 µM (inactive) | > 100 µM (inactive)
CC[C@@H]1CSC(/C=C/C2OC3OC(C)(C)OC3C3OC(C)(C)OC23)=N1 (some centres not stated) | 35.8 µM (inactive) | 10.8 µM (inactive) | 3.89 µM (inactive) | 10 µM (inactive) | 13.9 µM (inactive) | 4.49 µM (inactive) | 4.54 µM (inactive) | 11.9 µM (inactive) | 9.44 µM (inactive) | 8.2 µM (inactive) | 10.9 µM (inactive) | 10.3 µM (inactive) | 20.4 µM (inactive) | 5.05 µM (inactive) | 5.32 µM (inactive) | 14.1 µM (inactive) | 4.97 µM (inactive) | 3.03 µM (inactive) | 13.6 µM (inactive) | 
COC(=O)C1=C(C(=O)OC)SC2(S1)C(C(=O)OC)=C(C(=O)OC)Sc1c2ssc1=O | 8.97 µM (inactive) | 1.63 µM (inactive) |  | 1.12 µM (inactive) | 0.526 µM (active) | 1.34 µM (inactive) | 0.353 µM (active) | 1.46 µM (inactive) | 0.927 µM (active) | 1.43 µM (inactive) | 0.61 µM (active) | 1.65 µM (inactive) | 18.5 µM (inactive) | 1.78 µM (inactive) | 0.524 µM (active) | 1.78 µM (inactive) | 0.904 µM (active) | 1.31 µM (inactive) | 2.12 µM (inactive) | 1.64 µM (inactive)
c1ccc2nn(C3CCCO3)nc2c1 (configuration not stated) | > 100 µM (inactive) |  |  | > 100 µM (inactive) | > 100 µM (inactive) | > 100 µM (inactive) | > 100 µM (inactive) |  |  | > 100 µM (inactive) | > 100 µM (inactive) | > 100 µM (inactive) |  | > 100 µM (inactive) | > 100 µM (inactive) | > 100 µM (inactive) | > 100 µM (inactive) | > 100 µM (inactive) | > 100 µM (inactive) | > 100 µM (inactive)
CN(N=O)C(=O)Nc1c[nH]c(=O)[nH]c1=O | > 100 µM (inactive) | > 100 µM (inactive) |  | > 100 µM (inactive) | > 100 µM (inactive) | > 100 µM (inactive) | > 100 µM (inactive) | > 100 µM (inactive) | > 100 µM (inactive) | > 100 µM (inactive) | > 100 µM (inactive) | > 100 µM (inactive) | > 100 µM (inactive) | > 100 µM (inactive) | > 100 µM (inactive) | > 100 µM (inactive) | > 100 µM (inactive) | > 100 µM (inactive) | > 100 µM (inactive) | > 100 µM (inactive)
CCOC(=O)Cc1cc(=O)[nH]c(-n2[nH]c(C)c(CCO)c2=O)n1 | > 100 µM (inactive) | > 100 µM (inactive) |  | > 100 µM (inactive) | > 100 µM (inactive) | > 100 µM (inactive) |  | > 100 µM (inactive) | > 100 µM (inactive) | > 100 µM (inactive) | > 100 µM (inactive) | > 100 µM (inactive) | > 100 µM (inactive) | > 100 µM (inactive) | > 100 µM (inactive) | > 100 µM (inactive) | > 100 µM (inactive) | > 100 µM (inactive) | > 100 µM (inactive) | > 100 µM (inactive)
COc1c(C(=O)/C(=N/Nc2ccc(C(=O)O)cc2)C(C)=O)c(O)cc2occc12 | > 100 µM (inactive) | > 100 µM (inactive) | 68.9 µM (inactive) | > 100 µM (inactive) | > 100 µM (inactive) | > 100 µM (inactive) | > 100 µM (inactive) | > 100 µM (inactive) | > 100 µM (inactive) | > 100 µM (inactive) | 90.8 µM (inactive) | > 100 µM (inactive) | > 100 µM (inactive) | > 100 µM (inactive) | > 100 µM (inactive) | > 100 µM (inactive) | > 100 µM (inactive) | > 100 µM (inactive) | > 100 µM (inactive) | 
O=C1C(Br)=C(C2=CC(=P(c3ccccc3)(c3ccccc3)c3ccccc3)C=C2)C(=O)C(Br)=C1C1=CC(=P(c2ccccc2)(c2ccccc2)c2ccccc2)C=C1 | > 100 µM (inactive) | > 100 µM (inactive) | > 100 µM (inactive) | 12.6 µM (inactive) | > 100 µM (inactive) | > 100 µM (inactive) | > 100 µM (inactive) | 41.8 µM (inactive) | > 100 µM (inactive) | > 100 µM (inactive) | 18.3 µM (inactive) | 40.3 µM (inactive) | > 100 µM (inactive) | > 100 µM (inactive) | > 100 µM (inactive) | > 100 µM (inactive) | 40.2 µM (inactive) |  | 16.9 µM (inactive) | > 100 µM (inactive)
CN1CCCCC1CCN1c2ccccc2Sc2ccc([S+](C)[O-])cc21 (configuration not stated) [MESORIDAZINE] | > 100 µM (inactive) |  | > 100 µM (inactive) | > 100 µM (inactive) | > 100 µM (inactive) | > 100 µM (inactive) | > 100 µM (inactive) | > 100 µM (inactive) | > 100 µM (inactive) | > 100 µM (inactive) | > 100 µM (inactive) | > 100 µM (inactive) | > 100 µM (inactive) | > 100 µM (inactive) | > 100 µM (inactive) | > 100 µM (inactive) | > 100 µM (inactive) |  | > 100 µM (inactive) | > 100 µM (inactive)
CCC1c2[nH]c3ccccc3c2C[C@H]2C(=O)NC(CCC(=O)OC(C)(C)C)C(=O)N12 (some centres not stated) | 63.5 µM (inactive) | 46.9 µM (inactive) | 41.7 µM (inactive) | 42.5 µM (inactive) | 66.5 µM (inactive) | 48.4 µM (inactive) | 35.3 µM (inactive) | 73.5 µM (inactive) | 47.4 µM (inactive) | 33.7 µM (inactive) | 12.6 µM (inactive) | 53.8 µM (inactive) | 73.5 µM (inactive) | 68.7 µM (inactive) | 32.4 µM (inactive) | 60.8 µM (inactive) | 22.4 µM (inactive) |  | 56.6 µM (inactive) | 89.7 µM (inactive)
NNC(=O)c1nnn(CCc2ccccc2)c1C(=O)NN |  | > 100 µM (inactive) | > 100 µM (inactive) | > 100 µM (inactive) |  | > 100 µM (inactive) | > 100 µM (inactive) | > 100 µM (inactive) | > 100 µM (inactive) | > 100 µM (inactive) | > 100 µM (inactive) |  | > 100 µM (inactive) | > 100 µM (inactive) | > 100 µM (inactive) | > 100 µM (inactive) | > 100 µM (inactive) | > 100 µM (inactive) | > 100 µM (inactive) | 
CC(N/N=N/c1ccc(-c2nc3ccccc3[nH]2)cc1)C(=O)O (configuration not stated) | > 100 µM (inactive) | 39.1 µM (inactive) | 2.4 µM (inactive) | 35.1 µM (inactive) |  | 22.2 µM (inactive) | 5.01 µM (inactive) | > 100 µM (inactive) | 40.3 µM (inactive) | 25.6 µM (inactive) | 26.3 µM (inactive) | 12.9 µM (inactive) | > 100 µM (inactive) | 62.2 µM (inactive) | 25.9 µM (inactive) | 59.3 µM (inactive) | 18.6 µM (inactive) |  | 18.1 µM (inactive) | > 100 µM (inactive)
CCN1CC2=C(NC(=S)NC2c2ccc(Cl)cc2)/C(=C/c2ccc(Cl)cc2)C1 (configuration not stated) | > 100 µM (inactive) | > 100 µM (inactive) |  | > 100 µM (inactive) | 29.3 µM (inactive) | 88.5 µM (inactive) | 10.5 µM (inactive) | 24.4 µM (inactive) | 55.7 µM (inactive) | 46.5 µM (inactive) | 97.3 µM (inactive) | 42 µM (inactive) | 68.9 µM (inactive) | > 100 µM (inactive) | > 100 µM (inactive) | > 100 µM (inactive) | 61.5 µM (inactive) | 53.8 µM (inactive) | 45.3 µM (inactive) | 23 µM (inactive)
CN1C(=O)C(CCO)(C(C)(C)C)c2ccccc21 (configuration not stated) | > 100 µM (inactive) | > 100 µM (inactive) | > 100 µM (inactive) | > 100 µM (inactive) | > 100 µM (inactive) | > 100 µM (inactive) | > 100 µM (inactive) | > 100 µM (inactive) | > 100 µM (inactive) | > 100 µM (inactive) |  |  | > 100 µM (inactive) | > 100 µM (inactive) | > 100 µM (inactive) | > 100 µM (inactive) | > 100 µM (inactive) | > 100 µM (inactive) | > 100 µM (inactive) | 
